Assay results taken from ChEMBL document CHEMBL4024706 (Eur J Med Chem, 2017).

Legend:
[1] = biological target: Inhibitor of nuclear factor kappa-B kinase subunit beta (Homo sapiens) (UniProt O14920); assay: Inhibition of wild-type human full length IKK-beta (M1 to S756 residues) expressed in mammalian expression system assessed as residual activity at 1 uM by Kinomescan method relative to control
[2] = biological target: Mitogen-activated protein kinase kinase kinase kinase 3 (Homo sapiens) (UniProt Q8IVH8); assay: Inhibition of wild-type human partial length MAP4K3 (M1 to D301 residues) expressed in bacterial expression system assessed as residual activity at 1 uM by Kinomescan method relative to control
[3] = biological target: Angiopoietin-1 receptor (Homo sapiens) (UniProt Q02763); assay: Inhibition of wild-type human partial length TIE2 (N804 to T1112 residues) expressed in bacterial expression system assessed as residual activity at 1 uM by Kinomescan method relative to control
[4] = biological target: Ephrin type-B receptor 1 (Homo sapiens) (UniProt P54762); assay: Inhibition of wild-type human partial length EPHB1 (P589 to T911 residues) expressed in bacterial expression system assessed as residual activity at 1 uM by Kinomescan method relative to control
[5] = biological target: Serine/threonine-protein kinase RIO3 (Homo sapiens) (UniProt O14730); assay: Inhibition of wild-type human full length RIOK3 (M1 to E519 residues) expressed in bacterial expression system assessed as residual activity at 1 uM by Kinomescan method relative to control
[6] = biological target: Casein kinase I isoform alpha (Homo sapiens) (UniProt P48729); assay: Inhibition of wild-type human partial length CSNK1A1 (M1 to L450 residues) expressed in mammalian expression system assessed as residual activity at 1 uM by Kinomescan method relative to control
[7] = biological target: Ribosomal protein S6 kinase alpha-5 (Homo sapiens) (UniProt O75582); assay: Inhibition of wild-type human partial length C-terminal RPS6KA5 kinase domain 2 (V390 to T718 residues) expressed in bacterial expression system assessed as residual activity at 1 uM by Kinomescan method relative to control
[8] = biological target: Ribosomal protein S6 kinase alpha-1 (Homo sapiens) (UniProt Q15418); assay: Inhibition of wild-type human partial length C-terminal RSK1 kinase domain 2 (P360 to L681 residues) expressed in bacterial expression system assessed as residual activity at 1 uM by Kinomescan method relative to control
[9] = biological target: Mitogen-activated protein kinase 11 (Homo sapiens) (UniProt Q15759); assay: Inhibition of wild-type human full length p38-beta (M1 to Q364 residues) expressed in bacterial expression system assessed as residual activity at 1 uM by Kinomescan method relative to control
[10] = biological target: Phosphatidylinositol 5-phosphate 4-kinase type-2 gamma (Homo sapiens) (UniProt Q8TBX8); assay: Inhibition of wild-type human partial length PIP5K2C (M1 to A421 residues) expressed in mammalian expression system assessed as residual activity at 1 uM by Kinomescan method relative to control
[11] = biological target: Wee1-like protein kinase 2 (Homo sapiens) (UniProt P0C1S8); assay: Inhibition of wild-type human partial length WEE2 (M204 to K492 residues) expressed in bacterial expression system assessed as residual activity at 1 uM by Kinomescan method relative to control
[12] = biological target: Mitogen-activated protein kinase 12 (Homo sapiens) (UniProt P53778); assay: Inhibition of wild-type human full length p38-gamma (M1 to L367 residues) expressed in mammalian expression system assessed as residual activity at 1 uM by Kinomescan method relative to control
[13] = biological target: RAC-alpha serine/threonine-protein kinase (Homo sapiens) (UniProt P31749); assay: Inhibition of wild-type human partial length AKT1 expressed in bacterial expression system assessed as residual activity at 1 uM by Kinomescan method relative to control
[14] = biological target: Serine/threonine-protein kinase MRCK alpha (Homo sapiens) (UniProt Q5VT25); assay: Inhibition of wild-type human partial length MRCKA (L57 to V418 residues) expressed in bacterial expression system assessed as residual activity at 1 uM by Kinomescan method relative to control
[15] = system: Tyrosine-protein kinase ABL1 (Homo sapiens), P00519 [T315I]; assay: Inhibition of human non-phosphorylated ABL1 T315I mutant (S229 to K512 residues) expressed in mammalian expression system assessed as residual activity at 1 uM by Kinomescan method relative to control
[16] = biological target: Phosphatidylinositol 4-phosphate 3-kinase C2 domain-containing subunit beta (Homo sapiens) (UniProt O00750); assay: Inhibition of wild-type human partial length PIK3C2B (M1 to L1634 residues) expressed in mammalian expression system assessed as residual activity at 1 uM by Kinomescan method relative to control
[17] = system: Epidermal growth factor receptor (Homo sapiens), P00533 [L858R]; assay: Inhibition of human partial length EGFR L858R mutant (R669 to V1011 residues) expressed in bacterial expression system assessed as residual activity at 1 uM by Kinomescan method relative to control
[18] = biological target: Serine/threonine-protein kinase PLK2 (Homo sapiens) (UniProt Q9NYY3); assay: Inhibition of wild-type human partial length PLK2 (H58 to F354 residues) expressed in mammalian expression system assessed as residual activity at 1 uM by Kinomescan method relative to control
[19] = biological target: Serine/threonine-protein kinase 38 (Homo sapiens) (UniProt Q15208); assay: Inhibition of wild-type human partial length NDR1 (N33 to E449 residues) expressed in mammalian expression system assessed as residual activity at 1 uM by Kinomescan method relative to control
[20] = biological target: Beta-adrenergic receptor kinase 1 (Homo sapiens) (UniProt P25098); assay: Inhibition of wild-type human full length GRK2 (M1 to L689 residues) expressed in mammalian expression system assessed as residual activity at 1 uM by Kinomescan method relative to control
[21] = biological target: Serine/threonine-protein kinase Nek3 (Homo sapiens) (UniProt P51956); assay: Inhibition of wild-type human full length NEK3 (M1 to R506 residues) expressed in mammalian expression system assessed as residual activity at 1 uM by Kinomescan method relative to control
[22] = biological target: Serine/threonine-protein kinase DCLK3 (Homo sapiens) (UniProt Q9C098); assay: Inhibition of wild-type human partial length DCAMKL3 (E140 to V628 residues) expressed in bacterial expression system assessed as residual activity at 1 uM by Kinomescan method relative to control
[23] = biological target: Serine/threonine-protein kinase pim-1 (Homo sapiens) (UniProt P11309); assay: Inhibition of wild-type human partial length PIM1 (A15 to K313 residues) expressed in bacterial expression system assessed as residual activity at 1 uM by Kinomescan method relative to control
[24] = biological target: Calcium/calmodulin-dependent protein kinase type IV (Homo sapiens) (UniProt Q16566); assay: Inhibition of wild-type human partial length CAMK4 (A22 to A322 residues) expressed in bacterial expression system assessed as residual activity at 1 uM by Kinomescan method relative to control
[25] = biological target: Vascular endothelial growth factor receptor 2 (Homo sapiens) (UniProt P35968); assay: Inhibition of wild-type human partial length VEGFR2 (R787 to P1253 residues) expressed in mammalian expression system assessed as residual activity at 1 uM by Kinomescan method relative to control

C=CC(=O)Nc1cc(Nc2cc(-c3cccc(NC(=O)c4ccc(C(C)(C)C)cc4)c3C)cn(C)c2=O)ccc1C(=O)N1CCOCC1
Activity [1]: 100% | Activity [2]: 95% | Activity [3]: 100% | Activity [4]: 100% | Activity [5]: 78% | Activity [6]: 100% | Activity [7]: 100% | Activity [8]: 100% | Activity [9]: 100% | Activity [10]: 97% | Activity [11]: 100% | Activity [12]: 100% | Activity [13]: 100% | Activity [14]: 98% | Activity [15]: 99% | Activity [16]: 92% | Activity [17]: 100% | Activity [18]: 100% | Activity [19]: 93% | Activity [20]: 100% | Activity [21]: 97% | Activity [22]: 100% | Activity [23]: 100% | Activity [24]: 77% | Activity [25]: 97%
